Tests used:
[1] = tested on: FCR3 strain, a drug sensitive strain of Plasmodium falciparum; test: In vitro antimalarial assay (p-LDH, Malstat), FCR3 strain; type: cell-based; conditions: P. falciparum FCR3 (drug sensitive), 72 h culture, p-LDH readout, read-out: Antimalarial activity (IC50 value), Strain FCR3
Text: (§1) For the evaluation of the antimalarial activity of the compound of the present invention, K1 strain, a drug resistant strain of Plasmodium falciparum, and FCR3 strain, a drug sensitive strain thereof, which were generous gift from Professor Kiyoshi Kita of the Graduate School of Medicine and Faculty of Medicine, the University of Tokyo, were used to measure the in vitro antimalarial activity of the compound against those Plasmodium species according to the method established by Otoguro et al. (Otoguro, K., Kohana, A., Manabe, C., Ishiyama, A., Ui, H., Shiomi, K., Yamada, H. & Omura, S.: Potent antimalarial activity of polyether antibiotic, X-206. J. Antibiot., 54: 658-663, (2001)).
(§2) The parasites were grown based on a slightly modified method from the original method reported by Trager and Jensen (Trager, W. and Jensen, J.: Human malaria parasites in continuous culture, Science, 193: 673-677, (1976)), and those which were maintained and sub-cultured by the method were used. More specifically, in a culture dish, erythrocytes infected with the protozoa, which had been sub-cultured using a RPMI 1640 medium to which 10% human plasma had been added and fresh human erythrocytes, were diluted (hematocrit value: 2 to 5%, parasitaemia: 0.25 to 1%), and were cultured at 37° C. in a mixed gas of 3% O2-4% CO2-93% N2, and continuously cultured while changing the medium and adding fresh erythrocytes at 2- or 3-day intervals.
(§3) A drug susceptibility test was performed by modifying the method established by Desjardins et al. (Desjardins, R. E., Canfield, C. J., Haynes, D. E. and Chulay, J. D.: Quantitative assessment of antimalarial activity in vitro by a semiautomated microdilution technique. Antimicrob. Agents Chemother., 16: 710-718 (1979)). More specifically, 190 μL of a suspension of protozoa which had been precultured (hematocrit value: 2%, parasitaemia: 0.5 or 1%) and 10 μL of a solution of a test compound (5% DMSO solution) serially diluted so that the final concentration was 12.5 to 0.0001 μM were put in each well of a 96-well plate, and after mixing, the same was cultured for 72 hours in the above mixed gas.
(§4) For the measurement of the growth of protozoa, the method established by Makler (Makler, M. T., Rise, J. M., Williams, J. A., Bancroft, J. E., Piper, R. C., Gibbins, B. L. and Hinrichs, D. J.: Parasite lactate dehydrogenase as an Assay for Plasmodium falciparum drug sensitivity, Am. J. Med. Hyg., 48: 739-741 (1993)) was modified to colorimetrically determine parasite lactate dehydrogenase (p-LDH) using Malstat reagent (Flow Inc., USA).
(§5) More specifically, 72 hours after the culture, the 96-well plate was directly frozen at −20° C. for 18 hours and melted at 37° C. to hemolyze the protozoan-infected erythrocytes and destroy the protozoa to prepare a crude enzyme solution. 100 μL of Malstat reagent and 20 μL of the crude enzyme solution were added to and mixed in each well of another 96-well plate, and after reacting for 15 minutes at room temperature, 20 μL of a nitroblue tetrazolium 2 mg/mL phenazine ethosulfate 0.1 mg/mL=1:1 solution was added to the respective wells, and reaction was performed in dark conditions at room temperature for 2 hours.
(§6) The absorbance of the blue formazan product formed by the reaction was measured at a measurement wavelength of 655 nm by using a microplate reader (Labsystems, Finland) to colorimetrically determine the growth of the protozoa. The 50% growth inhibitory concentration for the protozoa of the compound (IC50 value) was determined based on the concentration-response curve of the compound.

[2] = tested on: K1 strain, a drug resistant strain of Plasmodium falciparum; test: In vitro antimalarial assay (p-LDH, Malstat), K1 strain; type: cell-based; conditions: P. falciparum K1 (drug resistant), 72 h culture, p-LDH readout, read-out: Antimalarial activity (IC50 value), Strain K1
Text: as §1, §2, §3, §4, §5, §6

CCCc1ccnc(Nc2nc(Nc3ccn4ccnc4c3)cc(N3CCCCC3)n2)c1 [Example 75, N4-(imidazo[1,2-a]pyridin-7-yl)-6-(piperidin-1-yl)-N2-(4-propylpyridin-2-yl)pyrimidine-2,4-diamine]
IC50 [1]: < 100 nM | IC50 [2]: 100 to 1000 nM

CCOCCc1cccc(Nc2nc(Nc3ccn4ccnc4c3)cc(N3CCCC3)n2)n1 [Example 160, N2-[6-(2-ethoxyethyl)pyridin-2-yl]-N4-(imidazo[1,2-a]pyridin-7-yl)-6-(pyrrolidin-1-yl) pyrimidine-2,4-diamine]
IC50 [1]: < 100 nM | IC50 [2]: < 100 nM

CCc1ccnc(Nc2nc(Nc3ccn4ccnc4c3)cc(N3CC[C@H](N(C)C)C3)n2)c1 [Example 126, (S)-6-(3-(dimethylamino)pyrrolidin-1-yl)-N2-(4-ethylpyridin-2-yl)-N4-(imidazo[1,2-a]pyridin-7-yl)pyrimidine-2,4-diamine]
IC50 [1]: < 100 nM | IC50 [2]: < 100 nM

CCCCc1cccc(Nc2nc(Nc3ccn4ccnc4c3)cc(N3CCC4(CCCC4)C3)n2)n1 [Example 173, N2-(6-butylpyridin-2-yl)-N4-(imidazo[1,2-a]pyridin-7-yl)-6-(2-azaspiro[4.4]nonan-2-yl) pyrimidine-2,4-diamine]
IC50 [1]: 100 to 1000 nM | IC50 [2]: 100 to 1000 nM

CCc1ccnc(Nc2nc(Nc3ccn4ccnc4c3)cc(N3CCN(C(=O)OC(C)(C)C)[C@@H](C)C3)n2)c1 [Example 103, (S)-tert-butyl 4-(2-((4-ethylpyridin-2-yl)amino)-6-(imidazo[1,2-a]pyridin-7-ylamino)pyrimidin-4-yl)-2-methylpiperazine-1-carboxylate]
IC50 [1]: 100 to 1000 nM | IC50 [2]: 100 to 1000 nM

Cc1cccc(Nc2nc(Nc3ccn4ccnc4c3)cc(-n3ccnc3)n2)n1 [Example 41, N4-(imidazo[1,2-a]pyridin-7-yl)-6-(1H-imidazol-1-yl)-N2-(6-methylpyridin-2-yl)pyrimidine-2,4-diamine]
IC50 [1]: < 100 nM | IC50 [2]: 100 to 1000 nM

Cc1cc(C)nc(Nc2nc(Nc3ccn4ccnc4c3)cc(N3CCC4(CCOCC4)C3)n2)c1 [Example 175, N2-(4,6-dimethylpyridin-2-yl)-N4-(imidazo[1,2-a]pyridin-7-yl)-6-(8-oxa-2-azaspiro[4.5]decan-2-yl)pyrimidine-2,4-diamine]
IC50 [1]: < 100 nM | IC50 [2]: < 100 nM

Cc1cccc(Nc2nc(Nc3ccn4ccnc4c3)cc(N3CCN(C)[C@@H](C)C3)n2)n1 [Example 40, (S)-6-(3,4-dimethylpiperazin-1-yl)-N4-(imidazo[1,2-a]pyridin-7-yl)-N2-(6-methylpyridin-2-yl)pyrimidine-2,4-diamine]
IC50 [1]: 1000 to 10000 nM | IC50 [2]: 1000 to 10000 nM

COc1cccc(Nc2nc(Nc3ccn4ccnc4c3)cc(N3CCCCC3)n2)n1 [Example 144, N4-(imidazo[1,2-a]pyridin-7-yl)-N2-(6-methoxypyridin-2-yl)-6-(piperidin-1-yl)pyrimidine-2,4-diamine]
IC50 [1]: 100 to 1000 nM | IC50 [2]: 100 to 1000 nM

Cc1cc(C)nc(Nc2nc(Nc3ccn4ccnc4c3)cc(N3CCC3)n2)c1 [Example 166, 6-(azetidin-1-yl)-N2-(4,6-dimethylpyridin-2-yl)-N4-(imidazo [1,2-a]pyridin-7-yl)pyrimidine-2,4-diamine]
IC50 [1]: < 100 nM | IC50 [2]: < 100 nM

CCCCc1cccc(Nc2nc(Nc3ccn4ccnc4c3)cc(N3CCC4(CCOCC4)C3)n2)n1 [Example 169, N2-(6-butylpyridin-2-yl)-N4-(imidazo[1,2-a]pyridin-7-yl)-6-(8-oxa-2-azaspiro[4.5]decan-2-yl) pyrimidine-2,4-diamine]
IC50 [1]: < 100 nM | IC50 [2]: < 100 nM

CCc1ccnc(Nc2nc(Nc3ccn4ccnc4c3)cc(N3CCN(C)[C@@H](C)C3)n2)c1 [Example 101, (S)-6-(3,4-dimethylpiperazin-1-yl)-N2-(4-ethylpyridin-2-yl)-N4-(imidazo[1,2-a]pyridin-7-yl)pyrimidine-2,4-diamine]
IC50 [1]: 100 to 1000 nM | IC50 [2]: 1000 to 10000 nM

Cc1nc(Nc2nc(Nc3ccn4ccnc4c3)cc(N3CCCCC3)n2)ccc1F [Example 202, N2-(5-fluoro-6-methylpyridin-2-yl)-N4-(imidazo[1,2-a]pyridin-7-yl)-6-(piperidin-1-yl) pyrimidine-2,4-diamine]
IC50 [1]: 100 to 1000 nM | IC50 [2]: 100 to 1000 nM

CCc1ccnc(Nc2nc(Nc3ccn4ccnc4c3)cc(N3CCC(N4CCCC4)CC3)n2)c1 [Example 127, N2-(4-ethylpyridin-2-yl)-N4-(imidazo[1,2-a]pyridin-7-yl)-6-(4-(pyrrolidin-1-yl)piperidin-1-yl)pyrimidine-2,4-diamine]
IC50 [1]: < 100 nM | IC50 [2]: < 100 nM

CCOc1cccc(Nc2nc(Nc3ccn4ccnc4c3)cc(N3CCCC3)n2)n1 [Example 150, N2-(6-ethoxypyridin-2-yl)-N4-(imidazo[1,2-a]pyridin-7-yl)-6-(pyrrolidin-1-yl)pyrimidine-2,4-diamine]
IC50 [1]: < 100 nM | IC50 [2]: 100 to 1000 nM

CC(C)(C)c1ccnc(Nc2nc(Nc3ccn4ccnc4c3)cc(N3CCCCC3)n2)c1 [Example 72, N2-(4-(tert-butyl)pyridin-2-yl)-N4-(imidazo[1,2-a]pyridin-7-yl)-6-(piperidin-1-yl)pyrimidine-2,4-diamine]
IC50 [1]: 100 to 1000 nM | IC50 [2]: 1000 to 10000 nM

CCCCc1cccc(Nc2nc(Nc3ccn4ccnc4c3)cc(N3CCC(C)(C)C3)n2)n1 [Example 168, N2-(6-butylpyridin-2-yl)-6-(3,3-dimethylpyrrolidin-1-yl)-N4-(imidazo[l,2-a]pyridin-7-yl) pyrimidine-2,4-diamine]
IC50 [1]: < 100 nM | IC50 [2]: 100 to 1000 nM

CCc1ccnc(Nc2nc(Nc3ccn4ccnc4c3)cc(N3CCC3)n2)c1 [Example 118, 6-(azetidin-1-yl)-N2-(4-ethylpyridin-2-yl)-N4-(imidazo[1,2-a]pyridin-7-yl)pyrimidine-2,4-diamine]
IC50 [1]: < 100 nM | IC50 [2]: < 100 nM

CCc1cccc(Nc2nc(Nc3ccn4ccnc4c3)cc(N3CCOCC3)n2)n1 [Example 107, N2-(6-ethylpyridin-2-yl)-N4-(imidazo[1,2-a]pyridin-7-yl)-6-morpholinopyrimidine-2,4-diamine]
IC50 [1]: < 100 nM | IC50 [2]: < 100 nM

CN(C)CCOc1cccc(Nc2nc(Nc3ccn4ccnc4c3)cc(N3CCCC3)n2)n1 [Example 155, N2-{6-[2-(dimethylamino)ethoxy]pyridin-2-yl}-N4-(imidazo[1,2-a]pyridin-7-yl)-6-(pyrrolidin-1-yl)pyrimidine-2,4-diamine]
IC50 [1]: < 100 nM | IC50 [2]: < 100 nM

Cc1cc(C)nc(Nc2nc(Nc3ccn4ccnc4c3)cc(N3CCC(O)CC3)n2)c1 [Example 130, 1-(2-((4,6-dimethylpyridin-2-yl)amino)-6-(imidazo[1,2-a]pyridin-7-ylamino)pyrimidin-4-yl)piperidin-4-ol]
IC50 [1]: < 100 nM | IC50 [2]: < 100 nM

Cc1cc(Cl)cc(Nc2nc(Nc3ccn4ccnc4c3)cc(N3CCCCC3)n2)n1 [Example 205, N2-(4-chloro-6-methylpyridin-2-yl)-N4-(imidazo[1,2-a]pyridin-7-yl)-6-(piperidin-1-yl) pyrimidine-2,4-diamine]
IC50 [1]: 100 to 1000 nM | IC50 [2]: 100 to 1000 nM

CCOc1ccc(Nc2nc(Nc3ccn4ccnc4c3)cc(N3CCCCC3)n2)cn1 [Example 51, N2-(6-ethoxypyridin-3-yl)-N4-(imidazo[1,2-a]pyridin-7-yl)-6-(piperidin-1-yl)pyrimidine-2,4-diamine]
IC50 [1]: 100 to 1000 nM | IC50 [2]: 1000 to 10000 nM

CCCCc1cccc(Nc2nc(Nc3ccn4ccnc4c3)cc(N3C[C@H]4CCC[C@H]4C3)n2)n1 [Example 179, N2-(6-butylpyridin-2-yl)-6-((3aR,6aS)-hexahydrocyclopenta[c]pyrrol-2(1H)-yl)-N4-(imidazo [1,2-a]pyridin-7-yl)pyrimidine-2,4-diamine]
IC50 [1]: 100 to 1000 nM | IC50 [2]: 100 to 1000 nM

Reference: patent US10538521B2, “Pyrimidine derivative having antimalarial activity” (CARNA BIOSCIENCES, INC., priority 2016, dated 2020)
